This is an account of results in ChEMBL document CHEMBL1201862, “PubChem BioAssay data set” (2004).

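48-hour exposure; five concentrations; linearly interpolated endpoints. At the GI50, growth is halved.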 Activity calls are given as the source filed them. No stated cut-off is given here; in the data, active = GI50 up to about 1.1 µM and inactive = higher. A value given as a limit tells only on which side of the number the result lay.

Test systems include BT-549; CAKI-1; DU-145; HT-29; MDA-MB-231; NCI-H23; NCI-H460; NCI/ADR-RES; OVCAR-3; OVCAR-4; SF-268; SF-295; SK-MEL-28; SK-MEL-2; SK-MEL-5; SNB-75; SR; TK-10; UACC-62; Malme-3M.
Test in all cases: inhibition of tumour cell growth, NCI panel, 48 h

For `O=C(Cc1ccccc1CCO)NCCc1ccccc1`, the GI50 in the experiment on BT-549, in the experiment on CAKI-1, with DU-145, with HT-29, in the experiment on MDA-MB-231 and in the experiment with NCI-H23 was > 100 µM (inactive) throughout. For the same compound, the GI50 with NCI-H460, in the experiment on NCI/ADR-RES, with OVCAR-3, in the experiment with OVCAR-4, in the experiment on SF-268 and in the experiment on SF-295 was > 100 µM (inactive) in each case. In addition, the GI50 with SK-MEL-28, in the experiment on SK-MEL-2, in the experiment with SK-MEL-5, in the experiment on SNB-75, with SR and with TK-10 was > 100 µM (inactive) each time. Also, the GI50 in the experiment with UACC-62 is > 100 µM (inactive).

As to `O=[N+]([O-])c1ccc2[nH]ncc2c1Cl`, the GI50 was 38.5 µM (inactive) in the experiment with BT-549; > 10 µM (inactive) in the experiment with CAKI-1; 16.6 µM (inactive) in the experiment with DU-145; 17.9 µM (inactive) with HT-29; 0.0108 µM (active) in the experiment with MDA-MB-231; 33.1 µM (inactive) in the experiment with NCI-H460. In addition, the GI50 is 26.5 µM (inactive) in the experiment on NCI/ADR-RES; 33.8 µM (inactive) with OVCAR-3; 26.8 µM (inactive) in the experiment on OVCAR-4; 86.3 µM (inactive) with SF-295; 33.5 µM (inactive) with SK-MEL-28; 20.2 µM (inactive) in the experiment on SK-MEL-2. The GI50 in the experiment on SK-MEL-5 is 13.3 µM (inactive); in the experiment on SNB-75, 35.9 µM (inactive); in the experiment with SR, 1.03 µM (active); in the experiment on TK-10, 83.6 µM (inactive); in the experiment with UACC-62 it was 34.2 µM (inactive).

On to `COc1ccc(NC(=O)C2=C(SC)C(=O)N=C2N)cc1`, for which the GI50 in the experiment on BT-549, in the experiment on CAKI-1, in the experiment with DU-145, in the experiment with HT-29, with MDA-MB-231 and in the experiment on NCI-H23 was > 100 µM (inactive) each time. For the same compound, the GI50 with NCI-H460, in the experiment with NCI/ADR-RES, in the experiment with OVCAR-4, in the experiment on SF-268, in the experiment with SF-295 and with SK-MEL-28 was > 100 µM (inactive) throughout. The GI50 was 82 µM (inactive) in the experiment on SK-MEL-2; > 100 µM (inactive) with SK-MEL-5; > 100 µM (inactive) in the experiment on SNB-75; 40.6 µM (inactive) in the experiment with SR; > 100 µM (inactive) in the experiment on TK-10; > 100 µM (inactive) in the experiment with UACC-62.

Consider `SC1CCCN(Cc2ccccc2)C1` (configuration not stated), for which the GI50 in the experiment on BT-549 is > 100 µM (inactive); with CAKI-1, 74.1 µM (inactive); with DU-145, > 100 µM (inactive); in the experiment on HT-29, 21 µM (inactive); in the experiment on MDA-MB-231, 56.5 µM (inactive); with NCI-H23, 25.6 µM (inactive). In addition, the GI50 was 23.9 µM (inactive) in the experiment with NCI-H460; > 100 µM (inactive) in the experiment on NCI/ADR-RES; > 100 µM (inactive) in the experiment with OVCAR-3; 56.9 µM (inactive) with OVCAR-4; 65.2 µM (inactive) in the experiment on SF-268; 61.1 µM (inactive) in the experiment on SF-295. Besides, the GI50 in the experiment on SK-MEL-28 was 41.9 µM (inactive); in the experiment on SK-MEL-2, 36 µM (inactive); in the experiment on SK-MEL-5 it was 18.5 µM (inactive); in the experiment on SNB-75, > 100 µM (inactive); in the experiment with SR, 27.9 µM (inactive); with TK-10 it was 69.7 µM (inactive). In the experiment on UACC-62, the GI50 is 44.8 µM (inactive).

As for `COC(=O)CCC(=O)NC1=C(NCc2ccccc2)C(=O)c2ccccc2C1=O`, the GI50 with BT-549 is 46.7 µM (inactive); with CAKI-1, 26.2 µM (inactive); in the experiment with DU-145, 45.3 µM (inactive); with HT-29, 25.7 µM (inactive); with MDA-MB-231, 23.4 µM (inactive); in the experiment on NCI-H23 it was 21.3 µM (inactive). Besides, the GI50 with NCI-H460 is 18 µM (inactive); with NCI/ADR-RES, 29.3 µM (inactive); with OVCAR-3, 3.95 µM (inactive); with OVCAR-4, 18.5 µM (inactive); in the experiment with SF-268, 39.8 µM (inactive); with SF-295, 26.7 µM (inactive). Also, the GI50 with SK-MEL-28 was 88.3 µM (inactive); with SK-MEL-2, 18.8 µM (inactive); in the experiment on SK-MEL-5, 12.1 µM (inactive); with SNB-75, 78.2 µM (inactive); in the experiment with SR, 27.9 µM (inactive); with TK-10 it was 45.3 µM (inactive). Moreover, the GI50 in the experiment on UACC-62 was 17.3 µM (inactive).

For `CC(=O)O[C@H]1[C@H](OC(C)=O)[C@@H](CN=[N+]=[N-])OCO[C@@H]1CN=[N+]=[N-]`, the GI50 in the experiment with BT-549, in the experiment with DU-145, in the experiment on HT-29, with MDA-MB-231, in the experiment on Malme-3M and with NCI-H23 was > 100 µM (inactive) throughout. Besides, the GI50 with NCI-H460, in the experiment with NCI/ADR-RES, in the experiment on OVCAR-4, in the experiment with SF-268, with SF-295 and in the experiment with SK-MEL-28 was > 100 µM (inactive) each time. Also, the GI50 in the experiment with SK-MEL-2, in the experiment on SK-MEL-5, with SNB-75, with SR, in the experiment on TK-10 and with UACC-62 was > 100 µM (inactive) in each case.

For the compound `COc1ccc(/C=N\N(C)Cc2cccc3ccsc23)cc1`, the GI50 in the experiment with BT-549 was > 100 µM (inactive); with CAKI-1 it was > 100 µM (inactive); in the experiment on DU-145, > 100 µM (inactive); in the experiment on HT-29 it was 49.2 µM (inactive); with MDA-MB-231, > 100 µM (inactive); with Malme-3M, > 100 µM (inactive). The GI50 in the experiment with NCI-H23 is 60.4 µM (inactive); in the experiment on NCI-H460, > 100 µM (inactive); in the experiment on NCI/ADR-RES, > 100 µM (inactive); in the experiment with OVCAR-3 it was 33.6 µM (inactive); with OVCAR-4, 92.5 µM (inactive); in the experiment with SF-268, > 100 µM (inactive). For the same compound, the GI50 is > 100 µM (inactive) in the experiment on SF-295; > 100 µM (inactive) with SK-MEL-28; 28.6 µM (inactive) with SK-MEL-5; > 100 µM (inactive) in the experiment on SNB-75; 90.2 µM (inactive) with SR; > 100 µM (inactive) in the experiment on TK-10. Further, in the experiment with UACC-62, the GI50 was > 100 µM (inactive).

For `O=C(NCCO)c1c(O)c2ccccc2[nH]c1=O`, the GI50 in the experiment on BT-549, in the experiment with CAKI-1, in the experiment on DU-145, in the experiment with HT-29, with MDA-MB-231 and with Malme-3M was > 100 µM (inactive) each time. Further, the GI50 in the experiment on NCI-H23, with NCI-H460, in the experiment on NCI/ADR-RES, with OVCAR-3, with OVCAR-4 and in the experiment on SF-268 was > 100 µM (inactive) in each case. Moreover, the GI50 in the experiment with SF-295, in the experiment with SK-MEL-28, with SK-MEL-5, in the experiment with SNB-75, in the experiment with SR and with TK-10 was > 100 µM (inactive) throughout.
